In publication PMC6367500, “18β-glycyrrhetyl-3-O-sulfate would be a causative agent of licorice-induced pseudoaldosteronism” (Scientific Reports, 2019):

Columns and labels:
[1] = Concentrations of GL metabolites in plasma of a patient with pseudoaldosteronism (LC-MS/MS); format: in vivo, human
Text: The patient was a person who had taken a Kampo formula containing licorice for 3 years (1.5 g of licorice for 1 year and 2 months, and 3 g for 1 year and 10 months). On day 0, we found a low plasma potassium level (2.1 mEq/l) and a high creatinine kinase level (364 U/l). Since low plasma renin activity and a low aldosterone level were also found, the patient was diagnosed with pseudoaldosteronism due to licorice. The administration of the Kampo formula was stopped and potassium supplementation of up to 100 mEq/day was started. In the plasma collected on day 0, we detected compound 3 at 8.6 µM, GA at 1.3 µM, and 2 at 87 nM, while 1, GL and 3MGA were not detected. On day 5, the plasma potassium level was still 2.1 mEq/l and potassium supplementation was continued. However, the plasma concentrations of 3 and GA had decreased to 3.6 µM and 0.65 µM, respectively. 2, 1, GL, and 3MGA were not detected. On day 13, the plasma potassium level was increased to 2.8 mEq/l, and the concentrations of 3 and GA were 61 nM and 11 nM, respectively. On day 14, the plasma potassium level was 3.4 mEq/l, and the concentration of 3 was 57 nM; GA was not detected. On day 18, the plasma potassium level had recovered to a normal level (4.9 mEq/l), so potassium supplementation was stopped.
Female SD rats or EHBRs (9-week-old) were anesthetized by an intraperitoneal (i.p.) injection of urethane (1 g/kg) and their jugular veins were exposed. GA suspended in 0.5% CMC was then administered orally (200 mg/kg) to the unconscious rats, and blood samples were collected from the jugular vein; urine samples were collected using a metabolic cage at an appropriate time over a 12-h period. […] Feces were homogenized in phosphate-buffered saline (PBS; 0.15 M, pH 7.2), centrifuged (1.2 × 10^4 g, 10 min), and the supernatants were collected. After 1 week as a washout period, female SD rats were anesthetized by an i.p. injection of urethane (1 g/kg) and their biliary tract was cannulated. GA (0.2 mg/kg) was injected into the jugular vein, and the bile was collected every hour for 4 h. Aliquots (10 µl) of plasma, urine, homogenate of feces, or bile were mixed with 20 µl of subtilisin (0.91 U/ml) and incubated at 37 °C for 30 min, followed by the addition of 70 µl of astragaloside IV solution (1 µg/ml in ethanol containing 0.5% formic acid, used as internal standard), and kept at −20 °C for 30 min. […] The transitions (precursor to daughter) monitored and retention times were as follows: ESI(+) 743.4 to 567.5 m/z for compound 1 (5.5 min), ESI(−) 565.5 to 96.5 m/z for 2 (6.2 min), ESI(−) 549.5 to 96.5 m/z for 3 (8.1 min), ESI(+) 647.6 to 453.6 m/z for 3MGA (9.2 min), ESI(+) 471.3 to 91.0 m/z for GA (8.8 min), ESI(+) 823.5 to 453.6 m/z for GL (10.8 min), and ESI(+) 785.4 to 143.0 m/z for astragaloside IV (3.0 min). Linear regressions over the concentration range of 32 nM to 20 µM for each compound were examined using the peak-area ratio of the compounds to their internal standards and the least-squares method (r^2 > 0.98).
The patient was a person. They provided written informed consent to the use of their blood and urine samples for this study, which was approved by the Independent Ethics Committee of Kameda General Hospital, in accordance with the Declaration of Helsinki. Their anamnesis was follows: hypertension, systemic lupus erythematosus, and antiphospholipid antibody syndrome (for 15 years), necrotic pulmonary aspergillosis (6 years ago), cerebral infarction (14 and 4 years ago, two times), and stomach cancer (3 years ago). After the operation for stomach cancer, the patient had been treated with Kracie Juzentaihoto Extract Granules for Ethical Use (Kracie Pharmaceuticals., Tokyo, Japan). […]

anti-3MGA-mAb [2] = assay: Dot-blot analysis using anti-3MGA-mAb; format: binding; conditions: 1 µg spotted on PES membrane, imaging analysis
Procedure: We confirmed the cross-reactivity of anti-3MGA-mAb against these GL metabolites. GL, GA, 3MGA, and compounds 1, 2, and 3 (1 µg each) were spotted on a polyethersulfone (PES) membrane, fixed onto the membrane, and colored using an anti-3MGA-mAb (Fig. 5A). […] Thus, the anti-3MGA-mAb cross-reacted to some extent with other metabolites of GL.
(§1) Figure 5 Dot-blot analysis and ELISA detection range of GL metabolites using anti-3MGA-monoclonal antibody (mAb). GL metabolites (1 µg each) were spotted on a PES membrane, and colored using an anti-3MGA-mAb (A). Competitive ELISA using anti-3MGA-mAb for GL metabolites was performed. Data are represented from a single analysis (n = 1) (B). […] Data are represented as mean ± S.D. (n = 3). Two-way ANOVA indicated a significant difference between GA and 3 (F1,36 = 4441, P < 0.001), concentrations (F8,36 = 315, P < 0.001), and their interactions (F8,36 = 281, P < 0.001). The calibrated line for the absorbance-concentration profile of 3 was calculated by the linear least-squares method, and the regression formula is shown in graph (C).
Anti-3MGA-mAb and 3MGA-human serum albumin (HSA)-conjugate were developed by the same protocols established in our previous studies[22],[23]. GL, GA, 3MGA, 1, 2, and 3 (1 µg each) were spotted on a Mustang^TM E positively charged PES membrane (Pall Co., East Hills, NY, USA). The membrane was then immersed into 0.1 M MES buffer (pH 4.7) containing 2% EDC and 1% NHS, and kept at room temperature for 1 h to activate the carboxyl group. After washing with distilled water, PBS containing 1% bovine serum albumin (BSA) was added to the membrane, which was shaken at room temperature for 2 h for fixation. Next, the membrane was blocked with PBS containing 5% skim milk (Morinaga-milk, Tokyo, Japan) and 0.1% Tween 20 at 4 °C overnight to reduce nonspecific adsorption. After washing twice with PBS containing 0.1% Tween 20 (T-PBS) for 5 min, the membrane was incubated with anti-3MGA-mAb and kept at room temperature for 3 h with constant agitation. The membrane was then washed twice with T-PBS for 5 min and treated with 1:500 diluted horseradish peroxidase (HRP)-labeled goat anti-mouse IgG (whole molecule; Sigma, St. Louis, MO, USA) antibody in T-PBS for 1 h with gentle shaking. Finally, the membrane was washed twice with T-PBS and once with PBS, and exposed to 1 mg/ml of freshly prepared 4-chloro-1-naphthol-0.03% H2O2 in PBS for 15 min at room temperature. The reaction was stopped by washing with distilled water, and the immunostained PES membrane was allowed to dry and then photographed. The positively stained areas were measured using Image J 1.46r (http://imageJ.nih.gov/ij).

anti-3MGA-mAb [3] = assay: Competitive ELISA using anti-3MGA-mAb; format: binding; conditions: specificity to 3MGA calibrated to 100%, n = 1
Procedure: as §1
When the specificity of the mAb to 3MGA was calibrated to 100%, the cross-reactivity for GL, GA, 1, 2, and 3 was 0.23%, 2.2%, 4.8%, 4.0%, and 23%, respectively. […] We confirmed the selectivity of the anti-3MGA-mAb in discriminating between 3 and GA and established the detectable measurement range for 3 in this ELISA system.
3MGA-HSA (1 µg/ml in 50 mM carbonate buffer, pH 9.6) was added into a 96-well plate (Nagel Nunc, Penfield, NY, USA) (100 µl in a well) and incubated at 37 °C for 1 h. After the removal of 3MGA-HSA, the wells were washed three times with T-PBS (200 µl in a well). The wells were incubated with 300 µl in a well of 5% skim milk at 4 °C overnight. After the wells had been washed with T-PBS three times, the sample solution diluted with Can Get Signal® Solution 1 (Toyobo Co., Ltd., Osaka, Japan) (50 µl in a well) and anti-3MGA-mAb (1:4,000 dilution with Can Get Signal® Solution 1) (50 µl in a well) were added to the wells, and the plate was incubated at 37 °C for 1 h. After the wells had been washed with T-PBS three times, HRP-labeled goat anti-mouse IgG (Fc specific) antibody (Sigma, 1:20,000 dilution with Can Get Signal® Solution 2) was added into the wells (100 µl in a well) and the plate was incubated at 37 °C for 1 h. Next, the wells were washed with T-PBS three times and the substrate solution (3,3′,5,5′-tetramethylbensidine, TMB solution; Fujifilm Wako Pure Chemical Corporation, Osaka, Japan) was added to the wells (100 µl in a well), followed by incubation at room temperature for 5 min. Then, the stop solution (0.5 M sulfuric acid) was added to the wells (100 µl in a well) and the optical density was measured at 450 nm/630 nm.

plasma concentration, day 0 ([1]; patient with licorice-induced pseudoaldosteronism, day 0): not detected
plasma concentration, day 5 ([1]; patient, 5 days after stopping the Kampo formula): not detected
Structure (SMILES): CC1(C)[C@@H](O[C@H]2O[C@H](C(=O)O)[C@@H](O)[C@H](O)[C@H]2O[C@@H]2O[C@H](C(=O)O)[C@@H](O)[C@H](O)[C@H]2O)CC[C@]2(C)[C@H]3C(=O)C=C4[C@@H]5C[C@@](C)(C(=O)O)CC[C@]5(C)CC[C@@]4(C)[C@]3(C)CC[C@@H]12 [GL, glycyrrhizin, reference compound]
area of positive staining in dot-blot (anti-3MGA-mAb [2]): not detectable
cross-reactivity of anti-3MGA-mAb (anti-3MGA-mAb [3]): 0.23%
